From patent US6673800B2, “4,5,-dihydroisoxazolylakylpiperazine derivatives having selective biological activity at dopamine D3 or D4 receptor, and preparation thereof” (Korea Institute of Science and Technology, priority 2000, dated 2004)

Tests used:
[1] = molecular target: T1, cloned human dopamine receptors D4 (Homo sapiens, UniProt P21917); assay: Binding affinity to dopamine receptor, radiolabeled ligand displacement (D4); parameters: Affinity to Dopamine Receptors (% Inhibition) D4: dose or concentration left out as unconfirmed
T1 sequence (P21917 1-419): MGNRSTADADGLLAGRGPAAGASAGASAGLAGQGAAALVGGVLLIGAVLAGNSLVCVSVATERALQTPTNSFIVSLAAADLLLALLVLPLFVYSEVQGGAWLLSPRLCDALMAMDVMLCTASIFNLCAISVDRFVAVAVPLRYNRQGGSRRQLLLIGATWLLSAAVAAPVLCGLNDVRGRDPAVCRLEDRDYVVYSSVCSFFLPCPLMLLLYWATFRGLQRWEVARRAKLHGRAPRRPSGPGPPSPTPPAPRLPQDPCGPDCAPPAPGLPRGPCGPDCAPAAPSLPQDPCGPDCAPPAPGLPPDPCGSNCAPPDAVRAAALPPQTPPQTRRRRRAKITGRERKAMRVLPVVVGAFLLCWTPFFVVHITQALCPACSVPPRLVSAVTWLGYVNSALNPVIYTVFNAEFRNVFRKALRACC
Experimental: (§1) Binding affinities of the compounds for dopamine receptors were determined indirectly by their ability to displace radiolabeled ligand from cloned human dopamine receptors. Compounds were incubated in receptor suspension to compete with the. radiolabeled ligand. The receptor-bound radiolabeled ligand was separated by filtering through Wallac glass fiber filtermat (GF/C) using Inotech cell harvester of 96-well format. The radioactivity bound to filter was counted by Micro-β counter (Wallac).
(§2) The aliquots of cloned human dopamine receptors stored at −70° C. were suspended in assay buffer and the content of receptor in each aliquot was determined by Bio-Rad DC protein assay kit to give an optimal protein (receptor) concentration obtained by preliminary receptor binding assay. Receptor suspension adjusted to optimal concentration was aliquoted in proper volume for assay and stored at −70° C. Binding assays of every compound were performed in duplicate and each different buffer solution was used for optimal assay with each subtype of dopamine receptors. Receptor binding assays were carried out in 96-well plates. Receptor suspension of 100 μl was incubated at 27° C. for 30-60 min in a final volume of 0.25 ml reaction mixture containing 50 μl of hot-ligand and 10 μl of test compound.
(§3) After incubation, the reaction mixture was washed with ice-cold 50 mM Tris-acetate buffer by rapid filtration using a Inotech cell harvester (Inotech, Switzerland) through Whatman GF/C glass fiber filter presoaked in the assay buffer. The filter was covered with MeltiLex, sealed in a sample bag followed by drying in the microwave, and counted by MicroBeta Plus(Wallac, Finland) at a counting efficiency of 30-40%.

[2] = molecular target: cloned human dopamine receptors D1 (Homo sapiens, UniProt P21728); assay: Binding affinity to dopamine receptor, radiolabeled ligand displacement (D1); parameters: dose or concentration left out as unconfirmed
cloned human dopamine receptors D1, sequence (P21728 whole entry): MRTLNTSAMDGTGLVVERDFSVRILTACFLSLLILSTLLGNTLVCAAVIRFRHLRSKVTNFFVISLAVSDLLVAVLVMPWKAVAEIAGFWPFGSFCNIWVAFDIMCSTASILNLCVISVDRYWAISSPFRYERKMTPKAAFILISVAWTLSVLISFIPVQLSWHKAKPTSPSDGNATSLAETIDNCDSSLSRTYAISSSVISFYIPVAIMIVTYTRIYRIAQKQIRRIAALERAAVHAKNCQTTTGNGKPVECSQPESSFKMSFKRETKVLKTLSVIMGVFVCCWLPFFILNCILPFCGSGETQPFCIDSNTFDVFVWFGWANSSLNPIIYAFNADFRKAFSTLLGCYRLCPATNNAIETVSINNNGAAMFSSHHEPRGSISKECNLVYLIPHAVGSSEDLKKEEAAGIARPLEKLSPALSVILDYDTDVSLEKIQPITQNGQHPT
Experimental: as §1, §2, §3

[3] = molecular target: cloned human dopamine receptors D2 (Homo sapiens, UniProt P14416); assay: Binding affinity to dopamine receptor, radiolabeled ligand displacement (D2); parameters: Affinity to Dopamine Receptors (% Inhibition) D2: dose or concentration left out as unconfirmed
cloned human dopamine receptors D2, sequence (P14416 whole entry): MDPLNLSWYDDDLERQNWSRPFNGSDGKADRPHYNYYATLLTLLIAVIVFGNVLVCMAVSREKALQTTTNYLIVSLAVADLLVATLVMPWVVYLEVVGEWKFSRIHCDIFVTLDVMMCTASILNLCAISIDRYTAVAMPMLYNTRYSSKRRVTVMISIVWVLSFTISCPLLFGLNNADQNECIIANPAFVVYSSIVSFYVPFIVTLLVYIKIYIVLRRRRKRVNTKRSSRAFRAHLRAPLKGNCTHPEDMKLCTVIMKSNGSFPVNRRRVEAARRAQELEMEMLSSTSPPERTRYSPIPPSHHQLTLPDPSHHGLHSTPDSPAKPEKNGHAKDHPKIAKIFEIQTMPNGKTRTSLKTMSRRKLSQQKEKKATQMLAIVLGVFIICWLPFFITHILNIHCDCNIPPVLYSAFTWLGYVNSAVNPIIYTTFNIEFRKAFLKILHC
Experimental: as §1, §2, §3

[4] = molecular target: cloned human dopamine receptors D3 (Homo sapiens, UniProt P35462); assay: Binding affinity to dopamine receptor, radiolabeled ligand displacement (D3); parameters: Affinity to Dopamine Receptors (% Inhibition) D3: dose or concentration left out as unconfirmed
cloned human dopamine receptors D3, sequence (P35462 whole entry): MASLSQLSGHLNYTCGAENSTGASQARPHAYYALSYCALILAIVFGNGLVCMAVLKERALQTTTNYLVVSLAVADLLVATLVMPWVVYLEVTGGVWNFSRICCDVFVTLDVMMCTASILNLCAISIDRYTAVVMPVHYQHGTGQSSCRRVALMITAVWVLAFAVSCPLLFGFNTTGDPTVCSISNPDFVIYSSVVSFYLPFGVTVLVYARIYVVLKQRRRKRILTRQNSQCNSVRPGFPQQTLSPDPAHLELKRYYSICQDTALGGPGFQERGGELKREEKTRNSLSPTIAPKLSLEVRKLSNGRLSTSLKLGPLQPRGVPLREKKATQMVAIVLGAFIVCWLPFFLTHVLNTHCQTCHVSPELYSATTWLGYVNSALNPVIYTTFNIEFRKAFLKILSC
Experimental: as §1, §2, §3

SMILES | Affinity to Dopamine Receptors (% Inhibition) D4 [1] [%] | IC50 [1] [nM] | Affinity to Dopamine Receptors (% Inhibition) D1 [2] [%] | Affinity to Dopamine Receptors (% Inhibition) D2 [3] [%] | IC50 [3] [nM] | Affinity to Dopamine Receptors (% Inhibition) D3 [4] [%] | IC50 [4] [nM]
CCOc1ccccc1N1CCN(CCCC2CC(c3ccc(OC)c(OC)c3)=NO2)CC1 (racemic) [Compound No. 29] | 57.4 | 108 | 40.1 | 83.5 | 110 |  | 
COc1ccccc1N1CCN(CCCC2CC(c3cccs3)=NO2)CC1 (stereo not shown) [Compound No. 10] | 103.6 | 34 | 19.9 | 56.0 | 1930 | 99.9 | 19
COc1ccc(C2=NOC(CCCN3CCN(c4ccccc4)CC3)C2)cc1OC (stereo not shown) [Compound No. 7] | 103.9 | 71 | 9.0 | 49.0 | 9230 | 102.5 | 21
CCOc1ccccc1N1CCN(CCCC2CC(c3cccs3)=NO2)CC1 (racemic) [Compound No. 30] | 102.3 | 11 | 57.8 | 88.2 | 470 | 101.2 | 4
COc1ccccc1N1CCN(CCCCC2CC(c3ccccc3)=NO2)CC1 (racemic) [Compound No. 34] | 100.1 |  | 23.6 | 58.3 |  | 83.8 | 
COc1ccc(C2=NOC(CCCN3CCN(c4ccccc4OC)CC3)C2)cc1OC (stereo not shown) [Compound No. 9] | 104.4 | 23 | 19.6 | 57.7 | 1440 | 101.2 | 5
